In patent publication US20120129872A1, “FUSED HETEROARYL INHIBITORS OF PRO-MATRIX METALLOPROTEINASE ACTIVATION” (priority 2010, published 2012):

Assays:
[1] = target: T1, proMMP13(1-268) (SEQ ID NO:7) (Homo sapiens, UniProt P45452); test: ThermoFluor binding assay with proMMP13(1-268)
T1 construct: 6×-histidine tag (C); made in house; host or cells: HEK293 (transient, secreted)
Experimental: (§1) The ThermoFluor® (TF) assay is a 384-well plate-based binding assay that measures thermal stability of proteins (Biomol Screen 2001, 6, 429-40; Biochemistry 2005, 44, 5258-66). The experiments were carried out using instruments available from Johnson & Johnson Pharmaceutical Research & Development, LLC. TF dye used in all experiments was […] (1,8-ANS) (Invitrogen: A-47).
(§2) Compounds were arranged in a pre-dispensed plate (Greiner Bio-one: 781280), wherein compounds were serially diluted in 100% DMSO across 11 columns within a series. Columns 12 and 24 were used as DMSO reference and contained no compound. For multiple compound concentration-response experiments, the compound aliquots ([…]) were robotically predispensed directly into black 384-well polypropylene PCR microplates (Abgene: TF-0384/k) using a Cartesian Hummingbird liquid handler (DigiLab, Holliston, Mass.). Following compound dispense, protein and dye solutions were added to achieve the final assay volume of 3 μL. The assay solutions were overlayed with 1 μL of silicone oil (Fluka, type DC 200: 85411) to prevent evaporation.
(§3) Assay plates were robotically loaded onto a thermostatically controlled PCR-type thermal block and then heated from 40 to 90° C. at a ramp-rate of 1° C./min for all experiments. Fluorescence was measured by continuous illumination with UV light (Hamamatsu LC6) supplied via fiber optics and filtered through a band-pass filter (380-400 nm; >60D cutoff). Fluorescence emission of the entire 384-well plate was detected by measuring light intensity using a CCD camera (Sensys, Roper Scientific) filtered to detect 500±25 nm, resulting in simultaneous and independent readings of all 384 wells. A single image with 20-sec exposure time was collected at each temperature, and the sum of the pixel intensity in a given area of the assay plate was recorded vs temperature and fit to standard equations to yield the Tm (J Biomol Screen 2001, 6, 429-40).
(§4) Thermodynamic parameters necessary for fitting compound binding for each proMMP were estimated by differential scanning calorimetry (DSC) and from ThermoFluor® data. The heat capacity of unfolding for each protein was estimated from the molecular weight and from ThermoFluor® dosing data.
ThermoFluor® with proMMP13(1-268) (SEQ ID NO: 7)
The proMMP13(1-268) (SEQ ID NO:7) protein sample preparations included a desalting buffer exchange step via a PD-10 gravity column (GE Healthcare). The desalting buffer exchange was performed prior to diluting the protein to the final assay concentration of 3.5 μM. The concentration of proMMP13(1-268) (SEQ ID NO:7) was estimated spectrophotometrically based on a calculated extinction coefficient of ε280=37000 M^−1 cm^−1, a calculated molecular weight of 30.8 kDa, and calculated pI of 5.33. ThermoFluor® reference conditions were defined as follows: 100 μg/mL proMMP13(1-268) (SEQ ID NO:7), 25 μM 1,8-ANS, pH 7.0 Buffer (50 mM HEPES pH 7.0, 100 mM NaCl, 0.001% Tween-20, 2.5 mM MgCl2, 300 μM CaCl2). The thermodynamic parameters for proMMP13(1-268) (SEQ ID NO:7) are as follows: Tm (° C.)=67 (+/−0.1), ΔUH(Tm) (cal mol^−1)=107000(+/−5000), ΔUS(Tm) (cal mol^−1 K^−1)=318, ΔUCp (cal mol^−1 K^−1)=2600.

[2] = target: T2, proMMP9(67-444;ΔFnII) (SEQ ID NO:5) (Homo sapiens, UniProt P14780, DEL216-390); test: ThermoFluor binding assay with proMMP9(67-444;ΔFnII)
T2 construct: start methionine (N); made in house; host or cells: E. coli BL21(DE3) RIL
T2 sequence (P14780 with tags, fused parts or gaps DEL216-390): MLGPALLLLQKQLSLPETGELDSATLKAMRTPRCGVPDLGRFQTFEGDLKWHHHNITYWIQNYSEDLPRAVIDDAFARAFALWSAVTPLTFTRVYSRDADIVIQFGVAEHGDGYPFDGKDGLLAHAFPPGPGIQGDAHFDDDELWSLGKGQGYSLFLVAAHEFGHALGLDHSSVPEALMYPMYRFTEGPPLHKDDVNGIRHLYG
Experimental: as §1, §2, §3, §4
ThermoFluor® with proMMP9(67-444;ΔFnII (SEQ ID NO:5)
The protein sample preparations had to include a desalting buffer exchange step via a PD-10 gravity column (GE Healthcare). The desalting buffer exchange was performed prior to diluting the protein to the final assay concentration of 3.5 μM proMMP9(67-444;ΔFnII) (SEQ ID NO:5). The concentration of proMMP9(67-444;ΔFnII) (SEQ ID NO:5) was determined spectrophotometrically based on a calculated extinction coefficient of ε280=33900 M^−1 cm^−1, a calculated molecular weight of 22.6 kDa, and calculated pI of 5.20. ThermoFluor® reference conditions were defined as follows: 80 μg/mL (3.5 μM) proMMP9(67-444;ΔFnII) (SEQ ID NO:5), 50 μM 1,8-ANS, pH 7.0 Buffer (50 mM HEPES pH 7.0, 100 mM NaCl, 0.001% Tween-20, 2.5 mM MgCl2, 300 μM CaCl2). The thermodynamic parameters for proMMP9(67-444;ΔFnII) (SEQ ID NO:5) are as follows: Tm (° C.)=63 (+/−0.1), ΔUH(Tm) (cal mol^−1)=105000(+/−5000), ΔUS(Tm) (cal mol^−1 K^−1)=450, ΔuCp (cal mol^−1 K^−1)=2000.

[3] = target: T3, proMMP9(20-445;ΔFnII) (SEQ ID NO:6) (Homo sapiens, UniProt P14780, DEL216-390); test: ThermoFluor binding assay with proMMP9(20-445;ΔFnII)
T3 construct: start methionine (N); made in house; host or cells: E. coli BL21(DE3) RIL
T3 sequence (P14780 with tags, fused parts or gaps DEL216-390): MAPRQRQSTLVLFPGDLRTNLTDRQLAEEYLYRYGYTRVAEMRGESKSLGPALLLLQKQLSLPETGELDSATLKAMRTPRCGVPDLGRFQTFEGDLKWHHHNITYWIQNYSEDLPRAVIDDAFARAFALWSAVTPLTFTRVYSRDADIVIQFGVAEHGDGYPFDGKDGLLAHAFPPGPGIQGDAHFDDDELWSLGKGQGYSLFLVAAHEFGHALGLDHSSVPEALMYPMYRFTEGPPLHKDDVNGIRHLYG
Experimental: as §1, §2, §3, §4
ThermoFluor® with proMMP9(20-445;ΔFnII (SEQ ID NO:6)
The protein sample preparations included a desalting buffer exchange step via a PD-10 gravity column (GE Healthcare). The desalting buffer exchange was performed prior to diluting the protein to the final assay concentration of 2.8 μM proMMP9(20-445;ΔFnII) (SEQ ID NO:6). The concentration of proMMP9(20-445;ΔFnII) (SEQ ID NO:6) was determined spectrophotometrically based on a calculated extinction coefficient of ε280=39880 M^−1 cm^−1, a calculated molecular weight of 28.2 kDa, and calculated pI of 5.5. ThermoFluor® reference conditions were define as follows: 80 μg/mL (2.8 μM) proMMP9(20-445;ΔFnII) (SEQ ID NO:6), 50 μM 1,8-ANS, pH 7.0 Buffer (50 mM HEPES pH 7.0, 100 mM NaCl, 0.001% Tween-20, 2.5 mM MgCl2, 300 μM CaCl2). The thermodynamic parameters for proMMP9(20-445;ΔFnII) (SEQ ID NO:6) are as follows: Tm (° C.)=72 (+/−0.1), ΔUH(Tm) (cal mol^−1)=160000(+/−5000), ΔUS(Tm) (cal mol^−1 K^−1)=434, ΔUCp (cal mol^−1 K^−1)=2400.

[4] = target: T4, full-length proMMP9(1-707) (SEQ ID NO:1), activation by catalytic MMP3 (Homo sapiens, UniProt P14780, R574P); test: proMMP9/MMP3 P126 Activation Assay; type: biochemical
T4 construct: made in house; host or cells: HEK293 (transient, secreted)
Experimental: proMMP9/MMP3 P126 Activation Assay
The reaction volume was 50 μL. […] Reactivity of residual MMP3 towards P-126 substrate was minimal under these conditions.

[5] = target: T5, proMMP13(1-268) (SEQ ID NO:7), activation by plasmin (Homo sapiens, UniProt P45452); test: ProMMP13/Plasmin P126 Activation Assay; type: biochemical
T5 construct: 6×-histidine tag (C); made in house; host or cells: HEK293 (transient, secreted)
Experimental: ProMMP13/Plasmin P126 Activation Assay
On the day of assay, proMMP13(1-268) (SEQ ID NO:7) purified from HEK293 cells and plasmin were diluted to 160 nM and 320 nM, respectively, in assay buffer. The reaction volume was 50 μL. […] The plate was sealed and incubated for 40 min at 37° C. […] Plasmin was not reactive towards P-126 substrate under these conditions.

[6] = target: T4, full-length proMMP9(1-707) (SEQ ID NO:1), activation by catalytic MMP3; test: ProMMP9/MMP3 DQ Gelatin Activation Assay; type: biochemical; settings: read-out: ProMMP9/MMP3 DQ gel Activation Assay, IC50
Source text: ProMMP9/MMP3 DQ Gelatin Activation Assay

T4 sequence (P14780 20-707 R574P): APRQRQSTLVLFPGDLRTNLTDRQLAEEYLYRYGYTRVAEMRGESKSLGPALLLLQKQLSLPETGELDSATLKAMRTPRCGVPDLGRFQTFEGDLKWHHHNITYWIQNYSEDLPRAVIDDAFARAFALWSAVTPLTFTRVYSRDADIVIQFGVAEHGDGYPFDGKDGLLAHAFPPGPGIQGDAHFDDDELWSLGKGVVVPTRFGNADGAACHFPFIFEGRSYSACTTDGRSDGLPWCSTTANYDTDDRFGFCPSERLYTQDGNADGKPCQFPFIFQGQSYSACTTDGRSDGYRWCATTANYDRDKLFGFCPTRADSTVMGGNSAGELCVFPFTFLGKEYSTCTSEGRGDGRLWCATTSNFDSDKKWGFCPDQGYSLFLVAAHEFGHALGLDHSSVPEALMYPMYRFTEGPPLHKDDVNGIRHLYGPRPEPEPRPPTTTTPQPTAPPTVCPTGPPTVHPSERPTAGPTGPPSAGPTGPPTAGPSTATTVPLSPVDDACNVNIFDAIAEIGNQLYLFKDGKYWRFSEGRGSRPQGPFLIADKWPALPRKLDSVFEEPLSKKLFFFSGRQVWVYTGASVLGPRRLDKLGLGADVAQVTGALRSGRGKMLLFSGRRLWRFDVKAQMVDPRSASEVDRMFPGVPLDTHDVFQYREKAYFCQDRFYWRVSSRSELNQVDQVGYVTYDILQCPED

Cc1nc2ccc(Cl)cn2c1-c1csc(Nc2cc(C(N)=O)ccc2OC(C)C)n1 [Example 6, 3-[4-(6-Chloro-2-methyl-imidazo[1,2-a]pyridin-3-yl)-thiazol-2-ylamino]-4-isopropoxy-benzamide]
Kd [1]: 1100 nM | Kd [2]: 17000 nM | Kd [3]: 490 nM | IC50 [4]: 640 nM

Cc1ccn2c(-c3csc(Nc4cc(C(N)=O)ccc4OC(C)C)n3)c(C)nc2c1 [Example 7, 3-[4-(2,7-Dimethyl-imidazo[1,2-a]pyridin-3-yl)-thiazol-2-ylamino]-4-isopropoxy-benzamide]
Kd [1]: 1200 nM | Kd [2]: 9600 nM | Kd [3]: 1500 nM | IC50 [4]: 1800 nM

CC(C)Oc1ccc(C(N)=O)cc1Nc1nc(-c2ccc3c(c2)ncn3C)cs1 [Example 8, 4-Isopropoxy-3-[4-(1-methyl-1H-benzoimidazol-5-yl)-thiazol-2-ylamino]-benzamide]
IC50 [5]: 900 nM | Kd [2]: 330 nM | Kd [3]: 30 nM | IC50 [4]: 150 nM

COc1ccc([N+](=O)[O-])cc1Nc1nc(-c2cnc3ccccn23)cs1 [Example 28, (4-Imidazo[1,2-a]pyridin-3-yl-thiazol-2-yl)-(2-methoxy-5-nitro-phenyl)-amine]
IC50 [6]: 5000 nM | Kd [2]: > 28000 nM | Kd [3]: > 29000 nM
